According to patent US11103532B2, “Chimeric protein” (AUTOLUS LIMITED, priority 2015, dated 2021):

System: T-cells
Test: Deletion of chimeric protein-expressing T-cells with Rapamycin (Annexin-V/7AAD flow cytometry)
Assay type: cell-based
Details: 48 hours; for deletion of transduced T-cells: different concentrations of Rapamycin, live cells expressing fluorescent proteins; for deletion of T-cells expressing both eGFP and eBFP2: lowest concentration of Rapamycin, co-transduced pair
Protocol: T-cells were either transduced with eGFP alone (FIG. 2a), or co-transduced with FKBP12-dCasp9 (co-expressing eGFP) and FRB-dCasp9 (co-expressing eBFP2) (FIG. 2b). T-cells were intentionally only partially transduced so that the non-transduced T-cells would act as internal controls. […] After 48 hours, cells were stained with Annexin-V and 7AAD and analysed by flow cytometry looking at the proportion of live cells which were expressing fluorescent proteins.
FIG. 3—Function of RapCasp9 variants. T-cells were transduced with (a) eGFP alone; (b) double transduced with FKBP12-Casp9 and FRB-Casp9 co-expressed with eGFP and eBFP2 respectively; (c) transduced with FRB-FKBP12-Casp9 and (d) transduced with FRB-Casp9-FKBP12 and (e) FBP12-Casp9-2A-FRB-FRBw. Only a proportion of cells were transduced, the negative cells acted as an internal negative control. […] T-cells were then stained with Annexin-V and 7AAD and analysed by flow-cytometry. eGFP vs eBFP2 is shown on live cells as determined by Annexin-V and 7AAD staining.
T-cells were transduced with the different constructs. For the two-molecule rapCasp9 (FIG. 1a), T-cells were transduced with two vectors: one coding for FKBP12-Casp9 co-expressed with the green fluorescent protein eGFP by means of an internal ribosome entry sequence, and the other coding for FRB-Casp9 co-expressed with the blue fluorescent protein eBFP2. For the one molecule rapCasp9 (FIG. 1b), T-cells were transduced with just one vector coding for the respective rapCasp9 which are co-expressed eGFP. A construct which provided FKB12-Casp9 and FRB-FRBw was encoded in a tri-cistronic cassette whereby the FKBP12-Casp9 and FRB-FRBw were co-expressed using a FMD-2A like peptide and eGFP was co-expressed with an IRES. The T-cells were intentionally only partially transduced so within the cell culture a proportion of cells remained non-transduced to act as an internal negative control.
Following this, T-cells were stained with Annexin-V and 7AAD and analysed by flow-cytometry. By gating on the live cells, and interrogating the population of cells expressing fluorescent proteins, survival of the transduced and non-transduced populations could be clearly measured.

FKBP12-Casp9: catalytic domain of Casp9 fused with FKBP12; tested co-expressed with FRB-Casp9
deletion of transduced T-cells: effective deletion of only double positive cells
deletion of T-cells expressing both eGFP and eBFP2: very effectively deleted

FKBP12-FRB-Casp9: single construct where FKBP12 and FRB are fused together and then fused to the catalytic domain of Casp9 by a flexible linker
deletion of transduced T-cells: effective deletion of single positive cells

FKBP12-Casp9/FRB-FRBw: Caspase 9 catalytic domain fused to FKBP12, co-expressed with a fusion of two copies of FRB
deletion of transduced T-cells: effective deletion of single positive cells

B1: FRB-Casp9: catalytic domain of Casp9 fused with FRB; tested co-expressed with FKBP12-Casp9 (protein)
chain: MASRILWHEMWHEGLEEASRLYFGERNVKGMFEVLEPLHAMMERGPQTLKETSFNQAYGRDLMEAQEWCRKYMKSGNVKDLLQAWDLYYHVFRRISKLEYSGGGSGVDGFGDVGALESLRGNADLAYILSMEPCGHCLIINNVNFCRESGLRTRTGSNIDCEKLRRRFSSLHFMVEVKGDLTAKKMVLALLELAQQDHGALDCCVVVILSHGCQASHLQFPGAVYGTDGCPVSVEKIVNIFNGTSCPSLGGKPKLFFIQACGGEQKDHGFEVASTSPEDESPGSNPEPDATPFQEGLRTFDQLDAISSLPTPSDIFVSYSTFPGFVSWRDPKSGSWYVETLDDIFEQWAHSEDLQSLLLRVANAVSVKGIYKQMPGCFNFLRKKLFFKTSAS
modifications: Chimeric protein FRB-dCasp9
deletion of transduced T-cells: effective deletion of only double positive cells
deletion of T-cells expressing both eGFP and eBFP2: very effectively deleted
